Non-standard residues stand in square brackets, D forms with d. No end group written: not given here.
Legend:
C. albicans = C. albicans colony forming units (candidacidal activity); format: cell-based; details: for relative potency in reducing C. albicans viability: FIG. 2, 10^−4M melanocortin peptides
Description: C. albicans (clinical isolate) was obtained from the collection of the Department of Microbiology, Ospedale Maggiore di Milano and maintained on Sabouraud's agar slants and periodically transferred to Sabouraud's agar plates and incubated for 48 hours at 28° C. To prepare a stationary growth phase yeast, a colony was taken from the agar plate and transferred into 30 ml Sabouraud-dextrose broth and incubated for 72 hours at 32° C. Cells were centrifuged and suspended in Hank's balanced salt solution (“HBSS”) to the desired concentration. Viability, determined by the exclusion of 0.01% methylene blue, remained >98%.
C. albicans (1×10^6/ml in HBSS) was incubated in the presence or absence or α-MSH(1-13) (SEQ ID NO: 3) or (11-13) (SEQ ID NO: 1) at concentrations in the range of 10^−15 M to 10^−6 M for 2 hours at 37° C. Cells were then washed in cold distilled water and diluted with HBSS to a concentration of 100 organisms/ml. One-ml aliquots were dispensed on blood agar plates and incubated for 48 hours at 37° C. Organism viability was estimated from the number of colonies formed.
In subsequent experiments using familiar procedures we compared activity of α-MSH(4-10) (SEQ ID NO: 10), (6-13) (SEQ ID NO: 2), (11-13) (SEQ ID NO: 1), ACTH(1-39) (SEQ ID NO: 9), (18-39) (SEQ ID NO: 11) and fluconazole, the latter an established antifungal agent. Melanocortin peptides and fluconazole were tested in concentrations of 10^−6 M to 10^−4 M. There were at least six replicates for each concentration of peptide. […]

[1] = system: inflammation induced in the ear by picryl chloride application; test: Picryl chloride-induced ear swelling; format: in vivo, BALB/C mice; details: for % Inhibition 3 h: 3 h after picryl chloride; for % Inhibition 6 h: 6 h after picryl chloride; for overall effect on inflammation (ANOVA): 10-80 μg IP, 3 and 6 h
Description: Hiltz, M. E., Catania, A., Lipton, J. M., Anti-Inflammatory Activity of aα-MSH (11-13) Analogs: Influence of Alteration in Stereochemistry, 12 Peptides 767 (1981). […] Female BALB/C mice (Simonsen Laboratories), 7 weeks old, were housed at 23-25° C. in groups of no more than 5 per cage [28 cm (L)×18 cm (W)×13 cm (H)]. They were allowed to acclimatize to standard lighting and temperature conditions for at least 1 week, with food and water available ad lib, before the experiment began. Five to ten animals were randomly assigned to each treatment group each test day, and all experiments were repeated at least twice to confirm reproducibility. To reduce error due to slight differences in responses to the irritant of animals from different shipments, tests of each agent were performed as separate experiments in which experimental and control animals were drawn from the same shipment.
In the experiments each animal was anesthetized with 1 mg of pentobarbital sodium solution ([…], Nembutal, Abbott Laboratories, Abbott park, Ill.). Baseline ear thickness was measured for both ears with a spring-loaded micrometer (Swiss Precision Instruments, Los Angeles, Calif.). Ear thickness was expressed in units of 10^−3 cm; the average thickness of unstimulated ears was approximately 25-30×10^−3 cm. After baseline measurements were taken, one of six solutions was injected IP. […] The doses of the tripeptides were 10 μg (2.6×.10^−8 M), 20 μg (5.2×.10^−8 M), 40 μg (1.04×.10^−7 M), and 80 μg (2.08×.10^−7 M). Immediately after saline or α-MSH injection, a micropipette was used to coat both sides of each ear with 10 μl […] of a 0.5% picryl chloride (Polysciences, Warrington, Pa.) solution in acetone.
Ear thickness was remeasured 3 and 6 h after picryl chloride application. Swelling was determined by subtracting baseline thickness from the measurements for each ear at 3 and 6 h. The differences for both ears were then averaged for the final analysis.
Repeated-measure ANOVA techniques were used to determine if there was an overall difference among group data for each peptide tested in separate experiments. In those cases in which the ANOVA yielded significant results, Dunnett's test was then used to compare the effects of peptide doses with control (saline) data for each of the two time periods, 3 and 6 h.

Substance | relative potency in reducing C. albicans viability (C. albicans) | % Inhibition 3 h ([1]; 10 μg IP) [%] | % Inhibition 6 h ([1]; 10 μg IP) [%] | % Inhibition 3 h ([1]; 20 μg IP) [%] | % Inhibition 6 h ([1]; 20 μg IP) [%] | % Inhibition 3 h ([1]; 40 μg IP) [%] | % Inhibition 6 h ([1]; 40 μg IP) [%] | % Inhibition 3 h ([1]; 80 μg IP) [%] | % Inhibition 6 h ([1]; 80 μg IP) [%] | overall effect on inflammation (ANOVA) [1] | effectiveness against microbes relative to α-MSH(11-13) (C. albicans) | C. albicans colony forming units (CFU) (C. albicans; FIG. 1, incubation 2 hours at 37° C.)
ACTH(18-39): ACTH fragment (18-39) (CLIP) (RPVKVYPAGEDDEASEAFPLEF; Designed polypeptide with anti-inflammatory, anti-microbial, anti-fungal, and anti-viral properties.) [reference compound] | did not reduce | – | – | – | – | – | – | – | – | – | – | –
Ac-[D-Lys^11]α-MSH(11-13)-NH2 (Ac-[dK]-Pro-Val-NH2; SMILES CC(=O)N[C@H](CCCCN)C(=O)N1CCC[C@H]1C(=O)N[C@H](C(N)=O)C(C)C) | – | 23 | 17 | 25 | 16 | 35 | 37 | 34 | 29 | significantly reduced inflammation | – | –
Ac-[D-Val^13]α-MSH(11-13)-NH2 (Ac-Lys-Pro-[dV]-NH2; SMILES CC(=O)N[C@@H](CCCCN)C(=O)N1CCC[C@H]1C(=O)N[C@@H](C(N)=O)C(C)C) [Ac-[D-Pro^13]α-MSH(11-13)-NH2] | – | 24 | 23 | 48 | 54 | 39 | 45 | 41 | 29 | marked inhibitory influence | – | –
VPK-Ac-CC-Ac-KPV (Ac-CKPV; also: disulfide dimer via Cys) | – | – | – | – | – | – | – | – | – | – | at least as effective as α-MSH(11-13) | inhibited
ACTH(1-39): adrenocortitrophic hormone (ACTH) peptide 1-39 (SYSMEHFRWGKPVGKKRRPVKVYPAGEDDEASEAFPLEF; listed as Homo sapiens) [reference compound] | did not reduce | – | – | – | – | – | – | – | – | – | – | –
Ac-[D-Lys^11, D-Val^13]α-MSH(11-13)-NH2 (Ac-[dK]-Pro-[dV]-NH2; SMILES CC(=O)N[C@H](CCCCN)C(=O)N1CCC[C@H]1C(=O)N[C@@H](C(N)=O)C(C)C) | – | 22 | 22 | 55 | 46 | 42 | 41 | 40 | 44 | significant overall reduction in inflammation | – | –
Ac-[D-Pro^12]α-MSH(11-13)-NH2 (Ac-Lys-[dP]-Val-NH2; SMILES CC(=O)N[C@@H](CCCCN)C(=O)N1CCC[C@@H]1C(=O)N[C@H](C(N)=O)C(C)C) | – | 4 | 8 | 11 | 5 | 10 | 8 | 8 | 6 | no significant effect on inflammation | – | –
